Results taken from paper PMC6929321 (Clinical drug investigation, 2019).
Like-named read-outs stand apart in the source and are kept apart here.

What was measured:
[1] = format: in vivo, human
[2] = in vivo; cited from earlier work
[3] = Suvorexant pharmacokinetics across both trials; format: in vivo; conditions: human, plasma, oral
[4] = Study P008: adverse events; format: in vivo, human; conditions: for AE: Abnormal dreams / AE: Diarrhea / AE: Headache / AE: Nausea / AE: Somnolence / AE: Vessel puncture site hematoma / ECI: Euphoric mood / ECI: Hypnagogic hallucination / ECI: Hypnopompic hallucination / ECI: Sleep paralysis / Subjects with ≥ 1 AE: N = 10
[5] = format: in vivo, human; remark: listed apart in the source
[6] = Study P038 diltiazem sub-study: adverse events; format: in vivo, human; conditions: for AE: Abnormal dreams / AE: Diarrhea / AE: Headache / AE: Nausea / AE: Somnolence / AE: Vessel puncture site hematoma / ECI: Euphoric mood / ECI: Hypnagogic hallucination / ECI: Hypnopompic hallucination / ECI: Sleep paralysis / Subjects with ≥ 1 AE: Study P038 diltiazem sub-study, N = 20
[7] = Study P038 rifampin sub-study: adverse events; format: in vivo, human; conditions: for AE: Abnormal dreams / AE: Diarrhea / AE: Headache / AE: Nausea / AE: Somnolence / AE: Vessel puncture site hematoma / ECI: Euphoric mood / ECI: Hypnagogic hallucination / ECI: Hypnopompic hallucination / ECI: Sleep paralysis / Subjects with ≥ 1 AE: Study P038 rifampin sub-study, N = 10
[8] = Safety assessments across both studies; format: in vivo, human
[9] = format: in vivo, human; remark: listed apart in the source
[10] = suvorexant 20 mg + diltiazem, listed as suvorexant
[11] = suvorexant 40 mg alone, listed as suvorexant

In the case of Cc1ccc(-n2nccn2)c(C(=O)N2CCN(c3nc4cc(Cl)ccc4o3)CC[C@H]2C)c1 [Suvorexant, suvorexant], the “Decrease in suvorexant Cmax on co-administration with rifampin” value ([1]; Study P038, suvorexant 40 mg, rifampin 600 mg once daily) is reported as 64%, the AUC(0-inf) ([1]; human, plasma, po, 40 mg) is reported as 13.6 µM·h and the Cmax ([1]; human, plasma, po, 40 mg) is reported as 850 nM. For the same compound, the Tmax ([1]; human, plasma, po, 40 mg) was 2 h, the half-life ([1]; human, plasma, po, 40 mg) was 12.9 h and the “Effect on psychomotor performance” value [2] was “no clinically meaningful effect on psycho-motor performance”. The “Reaction time (choice reaction time and simple reaction time)” value [2] was “statistically significant prolongation in reaction time”, the Tmax [3] was 1 to 2 h and the half-life ([3]; 40 mg) was 11.2 to 12.9 h. For the same compound, the “AE: Abnormal dreams” value ([4]; suvorexant 4 mg + ketoconazole) was 0 (0) n (%), the “AE: Diarrhea” value ([4]; suvorexant 4 mg + ketoconazole) was 0 (0) n (%) and the “AE: Headache” value ([4]; suvorexant 4 mg + ketoconazole) was 1 (10) n (%). The “AE: Nausea” value ([4]; suvorexant 4 mg + ketoconazole) was 0 (0) n (%), the “AE: Somnolence” value ([4]; suvorexant 4 mg + ketoconazole) was 7 (70) n (%) and the “AE: Vessel puncture site hematoma” value ([4]; suvorexant 4 mg + ketoconazole) was 0 (0) n (%). The “ECI: Euphoric mood” value ([4]; suvorexant 4 mg + ketoconazole) was 0 (0) n (%), the “ECI: Hypnagogic hallucination” value ([4]; suvorexant 4 mg + ketoconazole) was 0 (0) n (%) and the “ECI: Hypnopompic hallucination” value ([4]; suvorexant 4 mg + ketoconazole) was 0 (0) n (%). For the same compound, the “ECI: Sleep paralysis” value ([4]; suvorexant 4 mg + ketoconazole) was 0 (0) n (%), the “Subjects with ≥ 1 AE” value ([4]; suvorexant 4 mg + ketoconazole) was 7 (70) n (%) and the “AEs considered events of clinical interest (ECIs)” value ([4]; suvorexant 4 mg alone or with ketoconazole) was “no AEs were considered to be ECIs”. For the same compound, the “AE: Abnormal dreams” value ([4]; suvorexant 4 mg alone) was 0 (0) n (%), the “AE: Diarrhea” value ([4]; suvorexant 4 mg alone) was 0 (0) n (%) and the “AE: Headache” value ([4]; suvorexant 4 mg alone) was 0 (0) n (%). The “AE: Nausea” value ([4]; suvorexant 4 mg alone) was 0 (0) n (%), the “AE: Somnolence” value ([4]; suvorexant 4 mg alone) was 6 (60) n (%) and the “AE: Vessel puncture site hematoma” value ([4]; suvorexant 4 mg alone) was 0 (0) n (%). For the same compound, the “ECI: Euphoric mood” value ([4]; suvorexant 4 mg alone) was 0 (0) n (%), the “ECI: Hypnagogic hallucination” value ([4]; suvorexant 4 mg alone) was 0 (0) n (%) and the “ECI: Hypnopompic hallucination” value ([4]; suvorexant 4 mg alone) was 0 (0) n (%). The “ECI: Sleep paralysis” value ([4]; suvorexant 4 mg alone) was 0 (0) n (%), the “Subjects with ≥ 1 AE” value ([4]; suvorexant 4 mg alone) was 6 (60) n (%) and the “Prolongation (increase) in t½ on co-administration with diltiazem” value ([5]; Study P038 diltiazem sub-study, suvorexant 20 mg, diltiazem 240 mg once daily) was 3.7 h. It also gave an AUC(0-inf) ([5]; human, plasma, po, 20 mg) of 7.88 µM·h, a Cmax ([5]; human, plasma, po, 20 mg) of 620 nM and a Tmax ([5]; human, plasma, po, 20 mg) of 1.5 h. For the same compound, the half-life ([5]; human, plasma, po, 20 mg) was 12.4 h, the “AE: Abnormal dreams” value ([6]; suvorexant 20 mg + diltiazem) was 1 (5) n (%) and the “AE: Diarrhea” value ([6]; suvorexant 20 mg + diltiazem) was 0 (0) n (%). The “AE: Headache” value ([6]; suvorexant 20 mg + diltiazem) was 1 (5) n (%), the “AE: Nausea” value ([6]; suvorexant 20 mg + diltiazem) was 0 (0) n (%) and the “AE: Somnolence” value ([6]; suvorexant 20 mg + diltiazem) was 17 (85) n (%). The “AE: Vessel puncture site hematoma” value ([6]; suvorexant 20 mg + diltiazem) was 1 (5) n (%), the “ECI: Euphoric mood” value ([6]; suvorexant 20 mg + diltiazem) was 1 (5) n (%) and the “ECI: Hypnagogic hallucination” value ([6]; suvorexant 20 mg + diltiazem) was 0 (0) n (%). For the same compound, the “ECI: Hypnopompic hallucination” value ([6]; suvorexant 20 mg + diltiazem) was 0 (0) n (%), the “ECI: Sleep paralysis” value ([6]; suvorexant 20 mg + diltiazem) was 0 (0) n (%) and the “Subjects with ≥ 1 AE” value ([6]; suvorexant 20 mg + diltiazem) was 18 (90) n (%). The “ECI: Euphoric mood” value [6, 10] was 1 n (%), the “Subjects with ≥ 1 AE” value [6, 10] was 18 (90%) n (%) and the “AE: Abnormal dreams” value ([6]; suvorexant 20 mg alone) was 1 (5) n (%). The “AE: Diarrhea” value ([6]; suvorexant 20 mg alone) was 2 (10) n (%), the “AE: Headache” value ([6]; suvorexant 20 mg alone) was 0 (0) n (%) and the “AE: Nausea” value ([6]; suvorexant 20 mg alone) was 2 (10) n (%). The “AE: Somnolence” value ([6]; suvorexant 20 mg alone) was 19 (95) n (%), the “AE: Vessel puncture site hematoma” value ([6]; suvorexant 20 mg alone) was 1 (5) n (%) and the “ECI: Euphoric mood” value ([6]; suvorexant 20 mg alone) was 0 (0) n (%). The “ECI: Hypnagogic hallucination” value ([6]; suvorexant 20 mg alone) was 0 (0) n (%), the “ECI: Hypnopompic hallucination” value ([6]; suvorexant 20 mg alone) was 0 (0) n (%) and the “ECI: Sleep paralysis” value ([6]; suvorexant 20 mg alone) was 0 (0) n (%). For the same compound, the “Subjects with ≥ 1 AE” value ([6]; suvorexant 20 mg alone) was 20 (100) n (%), the “Subjects with ≥ 1 AE” value ([6]; suvorexant 20 mg alone, listed as suvorexant) was 20 (100%) n (%) and the “Duration of ECI euphoric mood” value ([6]; suvorexant 20 mg plus diltiazem) was 1 h. The “AE: Abnormal dreams” value ([7]; suvorexant 40 mg + rifampin) was 3 (30) n (%), the “AE: Diarrhea” value ([7]; suvorexant 40 mg + rifampin) was 0 (0) n (%) and the “AE: Headache” value ([7]; suvorexant 40 mg + rifampin) was 2 (20) n (%). The “AE: Nausea” value ([7]; suvorexant 40 mg + rifampin) was 0 (0) n (%), the “AE: Somnolence” value ([7]; suvorexant 40 mg + rifampin) was 9 (90) n (%) and the “AE: Vessel puncture site hematoma” value ([7]; suvorexant 40 mg + rifampin) was 0 (0) n (%). The “ECI: Euphoric mood” value ([7]; suvorexant 40 mg + rifampin) was 0 (0) n (%), the “ECI: Hypnagogic hallucination” value ([7]; suvorexant 40 mg + rifampin) was 0 (0) n (%) and the “ECI: Hypnopompic hallucination” value ([7]; suvorexant 40 mg + rifampin) was 0 (0) n (%). The “ECI: Sleep paralysis” value ([7]; suvorexant 40 mg + rifampin) was 0 (0) n (%), the “Subjects with ≥ 1 AE” value ([7]; suvorexant 40 mg + rifampin) was 10 (100) n (%) and the “Subjects with ≥ 1 AE” value ([7]; suvorexant 40 mg + rifampin, listed as suvorexant) was 10 (100%) n (%). For the same compound, the “AE: Abnormal dreams” value ([7]; suvorexant 40 mg alone) was 2 (20) n (%), the “AE: Diarrhea” value ([7]; suvorexant 40 mg alone) was 0 (0) n (%) and the “AE: Headache” value ([7]; suvorexant 40 mg alone) was 1 (10) n (%). For the same compound, the “AE: Nausea” value ([7]; suvorexant 40 mg alone) was 0 (0) n (%), the “AE: Somnolence” value ([7]; suvorexant 40 mg alone) was 10 (100) n (%) and the “AE: Vessel puncture site hematoma” value ([7]; suvorexant 40 mg alone) was 3 (30) n (%). The “ECI: Euphoric mood” value ([7]; suvorexant 40 mg alone) was 1 (10) n (%), the “ECI: Hypnagogic hallucination” value ([7]; suvorexant 40 mg alone) was 1 (10) n (%) and the “ECI: Hypnopompic hallucination” value ([7]; suvorexant 40 mg alone) was 1 (10) n (%). For the same compound, the “ECI: Sleep paralysis” value ([7]; suvorexant 40 mg alone) was 1 (10) n (%), the “Subjects with ≥ 1 AE” value ([7]; suvorexant 40 mg alone) was 10 (100) n (%) and the “ECI: Euphoric mood” value [7, 11] was 1 n (%). For the same compound, the “ECI: Hypnagogic hallucination” value [7, 11] was 1 n (%), the “ECI: Hypnopompic hallucination” value [7, 11] was 1 n (%) and the “ECI: Sleep paralysis” value [7, 11] was 1 n (%). The “Subjects with ≥ 1 AE” value [7, 11] was 10 (100%) n (%), the “Duration of ECI hypnopompic hallucination” value ([7]; suvorexant 40 mg in the rifampin sub-study) was 1 min and the “Changes in vital signs, laboratory safety tests, physical examination, or ECG monitoring” value ([8]; across both studies) was “no clinically meaningful changes”. For the same compound, the “Intensity of AEs” value ([8]; both trials, the moderate AE was in the P038 diltiazem sub-study) was “All AEs were mild in intensity, except one moderate AE of headache”, the “Serious AEs or deaths” value ([8]; either trial (P008, P038), suvorexant alone or with CYP3A inhibitor/inducer) was “no serious AEs or deaths” and the “Tolerability of single suvorexant doses” value ([8]; healthy subjects, co-administered with/without a CYP3A inhibitor/inducer) was “generally well tolerated”. For the same compound, the “Prolongation (increase) in t½ on co-administration with ketoconazole” value ([9]; Study P008, suvorexant 4 mg, ketoconazole 400 mg once daily) was 8.2 h, the AUC(0-inf) ([9]; human, plasma, po, 4 mg) was 2.61 µM·h and the Cmax ([9]; human, plasma, po, 4 mg) was 280 nM. The Tmax ([9]; human, plasma, po, 4 mg) was 1 h and the half-life ([9]; human, plasma, po, 4 mg) was 11.2 h.
